≈ marks a conversion by molar mass, not a printed value.
Tests used:
[1] = tested on: Staphylococcus aureus Smith strain; experiment: Infection treating test; format: in vivo, Staphylococcus aureus (in ddy male mice); conditions: sc, 2 h, mice infected intraperitoneally, 5×10^5 cells per mouse, subcutaneous, two hours after infection, read-out: CD50 (the source's name)
Method: The in vivo activities of the compounds of formula (I-d) were determined by using mice (five per group, ddy male mice, Shizuoka) which had been intraperitoneally infected with Staphylococcus aureus Smith strain in an amount of 5×10^5 cells per mouse. Two hours after the infection, an injection containing a sodium salt of each of the compounds of formula (I-d) was subcutaneously administered to the mice.

[2] = tested on: Alcaligenes faecalis A 1; experiment: minimum inhibitory concentration, agar dilution assay; format: cell-based; conditions: A1, agar dilution, 35° C., 20 hours, read-out: minimum inhibitory concentration
Method: (§1) The antibiotic activities shown in Tables I-1 to I-8 above were determined in the following manner.
(§2) The minimum inhibitory concentrations of the compounds of formula (I-a-1) or (I-b-1) in Tables I-1 to I-7 and the known compounds in Table I-8 on the various microorganisms shown in the above tables were measured by an agar dilution assay method using a brain heart infusion agar medium "Difco" (a product of Difco Laboratories Inc.)
(§3) A sample of the test compound was dissolved in sterile distilled water and diluted to prepare a two-fold dilution series of the compound solution. In a petri plate of 9 cm diameter, 1 ml of the compound solution was added to 9 ml of molten sterile heart infusion agar medium (Difco Laboratories Inc.) at about 60° C. to prepare the compound-containing agar plate. An overnight culture of each test organism indicated in the above table which was prepared by stationary cultivation in Trypto-Soy broth (Eiken Chemi. Co., Ltd.) at 35° C. for 18 to 20 hours, was diluted with the Trypto-Soy broth to give approximately 10^8 cells/ml and the diluted inoculum was inoculated onto the compound-containing agar plates. After cultivating the plates at 35° C. for 20 hours, the growth of the organism was observed. The minimum concentration of the compound at which no growth of the microorganism was noted was determined, and defined as the minimum inhibitory concentration of the test compound.

[3] = tested on: Bacillus subtilis ATCC 6633; experiment: as above; format: cell-based; conditions: ATCC6633, agar dilution, 35° C., 20 hours, read-out: minimum inhibitory concentration
Method: as §1, §2, §3

[4] = tested on: Citrobacter freundii GN 346; experiment: as above; format: cell-based; conditions: GN346, agar dilution, 35° C., 20 hours, read-out: minimum inhibitory concentration
Method: as §1, §2, §3

[5] = tested on: Comamonas terrigena B-996; experiment: as above; format: cell-based; conditions: B996, agar dilution, 35° C., 20 hours, read-out: minimum inhibitory concentration
Method: as §1, §2, §3

[6] = tested on: Enterobacter aerogenes E19; experiment: as above; format: cell-based; conditions: Klebsiella aerogenes, E19; agar dilution, 35° C., 20 hours; read-out: minimum inhibitory concentration
Method: as §1, §2, §3

[7] = tested on: Enterobacter cloacae 45; experiment: as above; format: cell-based; conditions: Enterobacter cloacae, 45; agar dilution, 35° C., 20 hours; read-out: minimum inhibitory concentration
Method: as §1, §2, §3

[8] = tested on: Enterobacter sp. E8; experiment: as above; format: cell-based; conditions: SP.E8, agar dilution, 35° C., 20 hours, read-out: minimum inhibitory concentration
Method: as §1, §2, §3

[9] = tested on: Escherichia coli K-12; experiment: as above; format: cell-based; conditions: K12, agar dilution, 35° C., 20 hours, read-out: minimum inhibitory concentration
Method: as §1, §2, §3

[10] = tested on: Escherichia coli RGN 823; experiment: as above; format: cell-based; conditions: RGN823, agar dilution, 35° C., 20 hours, read-out: minimum inhibitory concentration
Method: as §1, §2, §3

[11] = tested on: Klebsiella pneumoniae K-13; experiment: as above; format: cell-based; conditions: K13, agar dilution, 35° C., 20 hours, read-out: minimum inhibitory concentration
Method: as §1, §2, §3

[12] = tested on: Proteus mirabilis P6; experiment: as above; format: cell-based; conditions: P6, agar dilution, 35° C., 20 hours, read-out: minimum inhibitory concentration
Method: as §1, §2, §3

[13] = tested on: Proteus rettgeri P7; experiment: as above; format: cell-based; conditions: Providencia rettgeri, P7; agar dilution, 35° C., 20 hours; read-out: minimum inhibitory concentration
Method: as §1, §2, §3

[14] = tested on: Proteus sp. P22; experiment: as above; format: cell-based; conditions: agar dilution, 35° C., 20 hours; read-out: minimum inhibitory concentration
Method: as §1, §2, §3

[15] = tested on: Proteus vulgaris GN76; experiment: as above; format: cell-based; conditions: GN76, agar dilution, 35° C., 20 hours, read-out: minimum inhibitory concentration
Method: as §1, §2, §3

[16] = tested on: Providencia sp. P8; experiment: as above; format: cell-based; conditions: SP.P8, agar dilution, 35° C., 20 hours, read-out: minimum inhibitory concentration
Method: as §1, §2, §3

[17] = tested on: Pseudomonas aeruginosa IFO3445; experiment: as above; format: cell-based; conditions: IFO3445, agar dilution, 35° C., 20 hours, read-out: minimum inhibitory concentration
Method: as §1, §2, §3

[18] = tested on: Pseudomonas aeruginosa NCTC10490; experiment: as above; format: cell-based; conditions: NCTC10490, agar dilution, 35° C., 20 hours, read-out: minimum inhibitory concentration
Method: as §1, §2, §3

[19] = tested on: Sarcina lutea; experiment: as above; format: cell-based; conditions: Micrococcus luteus; agar dilution, 35° C., 20 hours; read-out: minimum inhibitory concentration
Method: as §1, §2, §3

[20] = tested on: Serratia marcescens S18; experiment: as above; format: cell-based; conditions: S18, agar dilution, 35° C., 20 hours, read-out: minimum inhibitory concentration
Method: as §1, §2, §3

[21] = tested on: Serratia marcescens T55; experiment: as above; format: cell-based; conditions: T55, agar dilution, 35° C., 20 hours, read-out: minimum inhibitory concentration
Method: as §1, §2, §3

[22] = tested on: Staphylococcus aureus FDA 209P; experiment: as above; format: cell-based; conditions: FDA209P, agar dilution, 35° C., 20 hours, read-out: minimum inhibitory concentration
Method: as §1, §2, §3

[23] = tested on: Staphylococcus aureus Russell; experiment: as above; format: cell-based; conditions: agar dilution, 35° C., 20 hours, read-out: minimum inhibitory concentration
Method: as §1, §2, §3

[24] = tested on: Staphylococcus aureus Smith; experiment: as above; format: cell-based; conditions: agar dilution, 35° C., 20 hours, read-out: minimum inhibitory concentration
Method: as §1, §2, §3

[25] = tested on: Staphylococcus epidermidis; experiment: as above; format: cell-based; conditions: agar dilution, 35° C., 20 hours, read-out: minimum inhibitory concentration
Method: as §1, §2, §3

[26] = tested on: Gram-positive and Gram-negative bacteria; experiment: antibiotic activity (antimicrobial spectrum); format: cell-based; conditions: comparison in words
Method: as §2, §3

Row | SMILES | MIC [2] [µg/mL] | MIC [3] [µg/mL] | MIC [4] [µg/mL] | MIC [5] [µg/mL] | MIC [6] [µg/mL] | MIC [7] [µg/mL] | MIC [8] [µg/mL] | MIC [9] [µg/mL] | MIC [10] [µg/mL] | MIC [11] [µg/mL] | MIC [12] [µg/mL] | MIC [13] [µg/mL] | MIC [14] [µg/mL] | MIC [15] [µg/mL] | MIC [16] [µg/mL] | MIC [17] [µg/mL] | MIC [18] [µg/mL] | MIC [19] [µg/mL] | MIC [20] [µg/mL] | MIC [21] [µg/mL] | further results
1 | CC(=O)NCCSC1=C(C(=O)O)N2C(=O)C(C(C)O)C2C1 (stereo not drawn) [PS-3B . Na, reference compound] |  |  |  |  |  |  |  |  |  |  |  |  |  |  |  |  |  |  |  |  | ED50 [1]: 2 mg/kg
2 | CCC1C(=O)N2C(C(=O)O)=C(SCCNC(C)=O)CC12 (stereo not drawn) [PS-5, 3-(2-acetaminothylthio)-6-ethyl-7-oxo-1-azabicyclo-[3.2.0]hept-2-ene-2-carboxylic acid, reference compound] | 0.39 (≈ 1.31 µM) | 0.1 (≈ 0.335 µM) | 3.13 (≈ 10.5 µM) | 0.013 (≈ 0.0436 µM) | 3.13 (≈ 10.5 µM) | 6.25 (≈ 20.9 µM) | 1.56 (≈ 5.23 µM) | 1.56 (≈ 5.23 µM) | 3.13 (≈ 10.5 µM) | 6.25 (≈ 20.9 µM) | 6.25 (≈ 20.9 µM) | 12.5 (≈ 41.9 µM) | 25 (≈ 83.8 µM) | 12.5 (≈ 41.9 µM) | 3.13 (≈ 10.5 µM) | 25 (≈ 83.8 µM) | 12.5 (≈ 41.9 µM) | 0.05 (≈ 0.168 µM) | 6.25 (≈ 20.9 µM) | 6.25 (≈ 20.9 µM) | MIC [22]: 0.025 µg/mL (≈ 0.0838 µM); MIC [23]: 0.1 µg/mL (≈ 0.335 µM); MIC [24]: 0.1 µg/mL (≈ 0.335 µM); MIC [25]: 0.1 µg/mL (≈ 0.335 µM); antibiotic activity (in words) [26]: better antibiotic activity than cephazolin (CEZ)
3 | CC(=O)NCCSC1=C(C(=O)O)N2C(=O)C(C(C)C)C2C1 (stereo not drawn) [PS-6, 3-(2-acetamidoethylthio)-6-isopropyl-7-oxo-1-azabicyclo[3.2.0]hept-2-ene-2-carboxylic acid, reference compound] | 1.56 (≈ 4.99 µM) | 0.78 (≈ 2.5 µM) | 12.5 (≈ 40 µM) | 0.1 (≈ 0.32 µM) | 25 (≈ 80 µM) | 25 (≈ 80 µM) | 6.25 (≈ 20 µM) | 6.25 (≈ 20 µM) | 6.25 (≈ 20 µM) | 25 (≈ 80 µM) | 12.5 (≈ 40 µM) | 6.25 (≈ 20 µM) | 25 (≈ 80 µM) | 12.5 (≈ 40 µM) | 6.25 (≈ 20 µM) | 50 (≈ 160 µM) | 50 (≈ 160 µM) | 0.39 (≈ 1.25 µM) | 25 (≈ 80 µM) | 50 (≈ 160 µM) | MIC [22]: 0.1 µg/mL (≈ 0.32 µM); MIC [23]: 0.2 µg/mL (≈ 0.64 µM); MIC [24]: 0.2 µg/mL (≈ 0.64 µM); MIC [25]: 0.39 µg/mL (≈ 1.25 µM); antibiotic activity (in words) [26]: better antibiotic activity than cephazolin (CEZ)
4 | CC(O)[C@H]1C(=O)N2C(C(=O)O)=C(SCCO)C[C@H]12 (stereo partly drawn) [R1 --OH*, R21 --CH2 CH2 OH] | 6.25 (≈ 22.9 µM) | 6.25 (≈ 22.9 µM) | 12.5 (≈ 45.7 µM) | 0.1 (≈ 0.366 µM) | 12.5 (≈ 45.7 µM) | 6.25 (≈ 22.9 µM) | 6.25 (≈ 22.9 µM) | 3.13 (≈ 11.5 µM) | 12.5 (≈ 45.7 µM) | 25 (≈ 91.5 µM) | 50 (≈ 183 µM) | 50 (≈ 183 µM) | 100 (≈ 366 µM) | 50 (≈ 183 µM) | 6.25 (≈ 22.9 µM) | 12.5 (≈ 45.7 µM) | 12.5 (≈ 45.7 µM) | 1.56 (≈ 5.71 µM) | 25 (≈ 91.5 µM) | 50 (≈ 183 µM) | MIC [22]: 0.39 µg/mL (≈ 1.43 µM); MIC [23]: 3.13 µg/mL (≈ 11.5 µM); MIC [24]: 3.13 µg/mL (≈ 11.5 µM); MIC [25]: 3.13 µg/mL (≈ 11.5 µM)
5 | CCC1C(=O)N2C(C(=O)O)=C(SCCO)CC12 (stereo not drawn) [R1 H, R21 --CH2 CH2 OH, sodium 3-(2-hydroxyethylthio)-6-ethyl-7-oxo-1-azabicylo[3.2.0]hept-2-ene-2-carboxylate] | 1.56 | 0.1 | 3.13 | 0.025 | 3.13 | 6.25 | 3.13 | 3.13 | 12.5 | 12.5 | 12.5 | 12.5 | 50 | 25 | 3.13 | 12.5 | 12.5 | 0.1 | 6.25 | 12.5 | MIC [22]: 0.05 µg/mL; MIC [23]: 0.2 µg/mL; MIC [24]: 0.1 µg/mL; MIC [25]: 0.2 µg/mL

Source: patent US4337199A, “Antibiotic β-lactam compounds, production thereof, and their use as antimicrobial agent” (Sanraku-Ocean Co., Ltd., priority 1978, dated 1982)
